US20230117034A1, “PYRAZOLOTRIAZINES” (Bayer Aktiengesellschaft, priority 2019, published 2023)

Assays:
CDK9/CycT1 = target: T1, CDK9/CycT1 (Homo sapiens, UniProt P50750); test: CDK9/CycT1 high ATP kinase assay (TR-FRET, 2 mM ATP); assay type: biochemical; conditions: 2 mM ATP (high ATP); median; read-out: CDK9/CyclinT1, 2 mM ATP (high ATP), IC50 (median)
T1 construct: Recombinant full-length His-tagged human CDK9 and CycT1; purchased Life Technologies PV4131; host or cells: insect cells
Procedure, shortened: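 Full-length His-tagged human CDK9/CycT1 (insect cell, ~0.5 μg/mL) preincubated 15 min at 22 °C with compound in Tris pH 8.0, MgCl2, DTT buffer before reaction with biotinylated peptide substrate at high ATP (2 mM).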

[1] = target: T2, CDK12 (nuclear staining in CAL-120 cells) (Homo sapiens, UniProt Q9NYV4); test: CDK12 nuclear protein level: immunofluorescence/high content analysis (CAL-120); assay type: cell-based; conditions: for DC50: CAL-120 cells, 24 h, immunofluorescence, 50% reduction of nuclear CDK12 staining intensity, median, read-out: CDK12 degradation IF, DC50- [mol/l] (median); for (IC50 CDK12 high ATP) to (Degradation DC50 CDK12) ratio: ratio of IC50 CDK12 high ATP kinase assay to DC50 CDK12 degradation (IF, CAL-120)
T2 construct: endogenous in cells; host or cells: CAL-120 human breast cancer cells (DSMZ ACC 459)
T2 sequence (Q9NYV4 whole entry): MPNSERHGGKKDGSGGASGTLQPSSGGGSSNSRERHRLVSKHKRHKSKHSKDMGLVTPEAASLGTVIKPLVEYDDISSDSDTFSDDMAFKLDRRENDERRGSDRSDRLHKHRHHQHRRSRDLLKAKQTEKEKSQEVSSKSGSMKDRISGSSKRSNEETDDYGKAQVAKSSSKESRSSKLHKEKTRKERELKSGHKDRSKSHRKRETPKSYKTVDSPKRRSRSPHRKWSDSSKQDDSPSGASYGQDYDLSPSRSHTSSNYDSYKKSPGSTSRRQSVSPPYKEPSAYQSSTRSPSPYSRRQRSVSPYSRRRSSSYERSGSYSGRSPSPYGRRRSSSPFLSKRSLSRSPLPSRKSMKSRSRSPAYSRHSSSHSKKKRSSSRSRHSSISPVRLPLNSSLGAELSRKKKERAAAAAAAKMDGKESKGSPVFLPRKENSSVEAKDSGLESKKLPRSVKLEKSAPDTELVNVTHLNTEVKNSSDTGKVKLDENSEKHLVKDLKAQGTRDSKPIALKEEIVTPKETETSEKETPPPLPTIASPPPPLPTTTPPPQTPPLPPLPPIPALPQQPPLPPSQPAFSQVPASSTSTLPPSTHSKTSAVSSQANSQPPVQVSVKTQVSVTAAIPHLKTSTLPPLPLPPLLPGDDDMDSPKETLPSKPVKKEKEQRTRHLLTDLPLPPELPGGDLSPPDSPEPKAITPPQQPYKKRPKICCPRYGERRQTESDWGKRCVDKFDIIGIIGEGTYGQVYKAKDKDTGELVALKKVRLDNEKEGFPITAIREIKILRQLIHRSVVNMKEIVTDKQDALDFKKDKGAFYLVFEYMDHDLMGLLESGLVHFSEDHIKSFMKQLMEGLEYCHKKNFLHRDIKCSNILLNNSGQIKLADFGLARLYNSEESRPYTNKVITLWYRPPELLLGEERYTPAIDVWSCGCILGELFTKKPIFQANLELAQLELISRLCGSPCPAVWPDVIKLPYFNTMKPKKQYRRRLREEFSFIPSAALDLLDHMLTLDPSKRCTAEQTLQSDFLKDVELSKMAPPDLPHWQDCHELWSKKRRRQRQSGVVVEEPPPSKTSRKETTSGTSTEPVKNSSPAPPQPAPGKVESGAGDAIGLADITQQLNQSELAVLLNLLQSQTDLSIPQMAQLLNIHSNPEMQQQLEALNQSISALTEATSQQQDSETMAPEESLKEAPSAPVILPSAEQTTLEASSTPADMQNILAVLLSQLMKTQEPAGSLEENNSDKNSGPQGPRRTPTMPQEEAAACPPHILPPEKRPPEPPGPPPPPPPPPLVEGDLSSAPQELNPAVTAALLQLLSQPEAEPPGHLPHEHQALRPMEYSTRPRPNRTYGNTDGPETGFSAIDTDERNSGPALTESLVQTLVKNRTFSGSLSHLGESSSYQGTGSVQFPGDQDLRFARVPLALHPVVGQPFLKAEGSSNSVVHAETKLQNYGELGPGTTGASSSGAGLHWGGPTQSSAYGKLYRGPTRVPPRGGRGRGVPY
T2 sequence (O75909 whole entry partner): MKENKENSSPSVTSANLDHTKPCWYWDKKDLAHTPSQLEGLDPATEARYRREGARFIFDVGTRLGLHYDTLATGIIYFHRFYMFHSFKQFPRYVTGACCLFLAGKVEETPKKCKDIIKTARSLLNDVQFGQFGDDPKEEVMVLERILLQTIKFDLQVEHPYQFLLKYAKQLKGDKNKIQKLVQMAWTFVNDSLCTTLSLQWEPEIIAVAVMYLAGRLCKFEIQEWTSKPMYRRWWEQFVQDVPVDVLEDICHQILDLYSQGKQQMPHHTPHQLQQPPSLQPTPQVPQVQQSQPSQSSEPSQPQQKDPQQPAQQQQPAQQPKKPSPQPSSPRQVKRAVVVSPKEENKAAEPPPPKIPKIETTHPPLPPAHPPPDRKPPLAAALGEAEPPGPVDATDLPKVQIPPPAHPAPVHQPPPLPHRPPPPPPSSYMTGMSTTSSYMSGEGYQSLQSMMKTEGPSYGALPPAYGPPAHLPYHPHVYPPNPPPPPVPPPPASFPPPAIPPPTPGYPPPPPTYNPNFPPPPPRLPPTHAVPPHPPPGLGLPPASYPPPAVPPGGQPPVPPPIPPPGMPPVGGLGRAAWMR
Procedure, shortened: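 DC50 is the degrader concentration that halves nuclear CDK12 immunofluorescence relative to controls, measured by high-content imaging. CAL-120 cells were exposed to compound for 24 h at 37 °C before PFA fixation, and signal was normalized to DMSO and control wells.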

T1 sequence (P50750 whole entry): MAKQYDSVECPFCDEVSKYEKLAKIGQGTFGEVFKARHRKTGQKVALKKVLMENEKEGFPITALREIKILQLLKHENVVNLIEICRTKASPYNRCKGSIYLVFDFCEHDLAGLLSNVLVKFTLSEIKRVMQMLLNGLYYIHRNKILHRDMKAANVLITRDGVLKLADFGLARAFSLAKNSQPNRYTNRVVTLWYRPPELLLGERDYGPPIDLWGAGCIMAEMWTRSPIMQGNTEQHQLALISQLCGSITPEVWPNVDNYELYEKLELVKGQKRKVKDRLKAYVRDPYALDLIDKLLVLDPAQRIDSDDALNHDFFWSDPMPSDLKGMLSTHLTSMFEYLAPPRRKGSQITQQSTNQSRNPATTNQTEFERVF
T1 sequence (O60563 whole entry partner): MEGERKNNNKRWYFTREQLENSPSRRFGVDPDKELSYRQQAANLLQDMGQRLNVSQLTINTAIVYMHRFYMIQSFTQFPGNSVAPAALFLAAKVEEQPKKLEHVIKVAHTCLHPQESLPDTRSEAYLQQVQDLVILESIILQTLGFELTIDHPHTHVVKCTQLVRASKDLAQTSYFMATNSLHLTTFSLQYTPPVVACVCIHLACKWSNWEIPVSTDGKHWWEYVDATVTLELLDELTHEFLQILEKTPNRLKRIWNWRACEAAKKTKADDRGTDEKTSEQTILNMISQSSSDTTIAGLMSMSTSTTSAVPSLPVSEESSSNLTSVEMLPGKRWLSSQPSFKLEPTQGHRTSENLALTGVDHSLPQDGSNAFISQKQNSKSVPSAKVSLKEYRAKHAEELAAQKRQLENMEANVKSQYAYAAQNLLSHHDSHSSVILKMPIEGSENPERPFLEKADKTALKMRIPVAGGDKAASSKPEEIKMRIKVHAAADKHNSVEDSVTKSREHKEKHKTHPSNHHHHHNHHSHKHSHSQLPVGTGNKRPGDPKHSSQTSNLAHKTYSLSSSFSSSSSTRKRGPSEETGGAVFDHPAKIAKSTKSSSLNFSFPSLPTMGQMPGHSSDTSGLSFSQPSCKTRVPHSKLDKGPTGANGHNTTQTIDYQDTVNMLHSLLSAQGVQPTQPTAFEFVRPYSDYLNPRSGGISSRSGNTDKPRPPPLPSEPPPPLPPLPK

Compound | IC50 (CDK9/CycT1) | DC50 [1] | (IC50 CDK12 high ATP) to (Degradation DC50 CDK12) ratio [1]
Fc1ccc(-c2cnc(CNc3nc(N4CCOCC4)nc4c(Br)cnn34)[nH]2)cc1 [Example 66, 8-bromo-N-{[5-(4-fluorophenyl)-1H-imidazol-2-yl]methyl}-2-(morpholin-4-yl)pyrazolo[1,5-a][1,3,5]triazin-4-amine] | 4480 nM | 130 nM | >44
Brc1cnn2c(NCc3nnc(-c4ccccc4)[nH]3)nc(N3CCCC3)nc12 [Example 64, 8-bromo-N-[(5-phenyl-4H-1,2,4-triazol-3-yl)methyl]-2-(pyrrolidin-1-yl)pyrazolo[1,5-a][1,3,5]triazin-4-amine] | 3560 nM | 12.5 nM | 440
Brc1cnn2c(NCc3nnc(-c4ccccc4)[nH]3)nc(N3CC4(COC4)C3)nc12 [Example 65, 8-bromo-2-(2-oxa-6-azaspiro[3.3]heptan-6-yl)-N-[(5-phenyl-4H-1,2,4-triazol-3-yl)methyl]pyrazolo[1,5-a][1,3,5]triazin-4-amine] | > 5710 nM | 4.15 nM | 245
COC1CCN(c2nc(NCc3nnc(-c4ccccc4)[nH]3)n3ncc(Br)c3n2)CC1 [Example 76, 8-bromo-2-(4-methoxypiperidin-1-yl)-N-[(5-phenyl-4H-1,2,4-triazol-3-yl)methyl]pyrazolo[1,5-a][1,3,5]triazin-4-amine] | 7850 nM | 12.1 nM | >440
OC[C@H]1CCCCN1c1nc(NCc2nnc(-c3ccccc3)[nH]2)n2ncc(Br)c2n1 [Example 71, [(2R)-1-(8-bromo-4-{[(5-phenyl-4H-1,2,4-triazol-3-yl)methyl]amino}pyrazolo[1,5-a][1,3,5]triazin-2-yl)piperidin-2-yl]methanol] | 1760 nM | 4.34 nM | 998
FC(F)(F)Oc1cccc(-c2cnc(CNc3nc(N4CCOCC4)nc4c(Br)cnn34)[nH]2)c1 [Example 82, 8-bromo-2-(morpholin-4-yl)-N-({5-[3-(trifluoromethoxy)phenyl]-1H-imidazol-2-yl}methyl)pyrazolo[1,5-a][1,3,5]triazin-4-amine] | 12600 nM | 22.3 nM | 41
COC(=O)C1CCN(c2nc(NCc3nnc(-c4ccccc4)[nH]3)n3ncc(Br)c3n2)CC1 [Example 77, methyl 1-(8-bromo-4-{[(5-phenyl-4H-1,2,4-triazol-3-yl)methyl]amino}pyrazolo[1,5-a][1,3,5]triazin-2-yl)piperidine-4-carboxylate] | 12900 nM | 116 nM | 87
COc1cccc(-c2cnc(CNc3nc(N4CCOCC4)nc4c(Br)cnn34)[nH]2)c1 [Example 80, 8-bromo-N-{[5-(3-methoxyphenyl)-1H-imidazol-2-yl]methyl}-2-(morpholin-4-yl)pyrazolo[1,5-a][1,3,5]triazin-4-amine] | 5430 nM | 4.28 nM | 276
c1ccc(-c2nnc(CNc3nc(N4CCOCC4)nc4c(C5CC5)cnn34)[nH]2)cc1 [Example 93, 8-cyclopropyl-2-(morpholin-4-yl)-N-[(5-phenyl-4H-1,2,4-triazol-3-yl)methyl]pyrazolo[1,5-a][1,3,5]triazin-4-amine] | 8590 nM | 23.3 nM | 116
Cc1ccccc1-c1cnc(CNc2nc(N3CCOCC3)nc3c(Br)cnn23)[nH]1 [Example 85, 8-bromo-N-{[5-(2-methylphenyl)-1H-imidazol-2-yl]methyl}-2-(morpholin-4-yl)pyrazolo[1,5-a][1,3,5]triazin-4-amine] | > 10800 nM | 5.57 nM | 1137
COc1ccccc1-c1cnc(CNc2nc(N3CCOCC3)nc3c(Br)cnn23)[nH]1 [Example 87, 8-bromo-N-{[5-(2-methoxyphenyl)-1H-imidazol-2-yl]methyl}-2-(morpholin-4-yl)pyrazolo[1,5-a][1,3,5]triazin-4-amine] | 5130 nM | 2.16 nM | 1196
C[C@@H]1CN(c2nc(NCc3nc4ccccc4[nH]3)n3ncc(Br)c3n2)C[C@H](C)O1 [Example 73, N-[(1H-benzimidazol-2-yl)methyl]-8-bromo-2-[(2R,6S)-2,6-dimethylmorpholin-4-yl]pyrazolo[1,5-a][1,3,5]triazin-4-amine] | 9380 nM | 5.15 nM | 129
OC[C@@H]1CCCCN1c1nc(NCc2nnc(-c3ccccc3)[nH]2)n2ncc(Br)c2n1 [Example 70, [(2S)-1-(8-bromo-4-{[(5-phenyl-4H-1,2,4-triazol-3-yl)methyl]amino}pyrazolo[1,5-a][1,3,5]triazin-2-yl)piperidin-2-yl]methanol] | 569 nM | 7.9 nM | 79
OCC1COCCN1c1nc(NCc2nc3ccccc3[nH]2)n2ncc(Br)c2n1 (stereo not drawn) [Example 67, (4-{4-[(1H-benzimidazol-2-ylmethyl)amino]-8-bromopyrazolo[1,5-a][1,3,5]triazin-2-yl}morpholin-3-yl)methanol] | > 19400 nM | 3.77 nM | 727
C[C@@H]1CN(c2nc(NCc3nnc(-c4ccccc4)[nH]3)n3ncc(Br)c3n2)C[C@H](C)O1 [Example 78, 8-bromo-2-[(2R,6S)-2,6-dimethylmorpholin-4-yl]-N-[(5-phenyl-4H-1,2,4-triazol-3-yl)methyl]pyrazolo[1,5-a][1,3,5]triazin-4-amine] | 768 nM | 5.15 nM | 141
FC(F)(F)c1ccccc1-c1cnc(CNc2nc(N3CCOCC3)nc3c(Br)cnn23)[nH]1 [Example 88, 8-bromo-2-(morpholin-4-yl)-N-({5-[2-(trifluoromethyl)phenyl]-1H-imidazol-2-yl}methyl)pyrazolo[1,5-a][1,3,5]triazin-4-amine] | 6420 nM | 16.3 nM | 84
Fc1ccccc1-c1cnc(CNc2nc(N3CCOCC3)nc3c(Br)cnn23)[nH]1 [Example 86, 8-bromo-N-{[5-(2-fluorophenyl)-1H-imidazol-2-yl]methyl}-2-(morpholin-4-yl)pyrazolo[1,5-a][1,3,5]triazin-4-amine] | 5270 nM | 3.95 nM | 478
FC(F)(F)Oc1ccccc1-c1cnc(CNc2nc(N3CCOCC3)nc3c(Br)cnn23)[nH]1 [Example 89, 8-bromo-2-(morpholin-4-yl)-N-({5-[2-(trifluoromethoxy)phenyl]-1H-imidazol-2-yl}methyl)pyrazolo[1,5-a][1,3,5]triazin-4-amine] | > 20000 nM | 7.3 nM | 1471
FC(F)(F)c1cccc(-c2cnc(CNc3nc(N4CCOCC4)nc4c(Br)cnn34)[nH]2)c1 [Example 83, 8-bromo-2-(morpholin-4-yl)-N-({5-[3-(trifluoromethyl)phenyl]-1H-imidazol-2-yl}methyl)pyrazolo[1,5-a][1,3,5]triazin-4-amine] | 6790 nM | 9.37 nM | 111
COC(=O)C1CCN(c2nc(NCc3nc4ccccc4[nH]3)n3ncc(Br)c3n2)CC1 [Example 63, methyl 1-(4-{[(1H-benzimidazol-2-yl)methyl]amino}-8-bromopyrazolo[1,5-a][1,3,5]triazin-2-yl)piperidine-4-carboxylate] | > 20000 nM | 20.7 nM | 556
c1ccc2[nH]c(CNc3nc(N4CCOCC4)nc4c(C5CC5)cnn34)nc2c1 [Example 92, N-[(1H-benzimidazol-2-yl)methyl]-8-cyclopropyl-2-(morpholin-4-yl)pyrazolo[1,5-a][1,3,5]triazin-4-amine] | > 20000 nM | 2.36 nM | 1378
Clc1ccc(-c2cnc(CNc3nc(N4CCOCC4)nc4c(Br)cnn34)[nH]2)cc1 [Example 72, 8-bromo-N-{[5-(4-chlorophenyl)-1H-imidazol-2-yl]methyl}-2-(morpholin-4-yl)pyrazolo[1,5-a][1,3,5]triazin-4-amine] | 6720 nM | 10 nM | 55
Clc1ccccc1-c1nnc(CNc2nc(N3CCOCC3)nc3c(Br)cnn23)[nH]1 [Example 69, 8-bromo-N-{[5-(2-chlorophenyl)-4H-1,2,4-triazol-3-yl]methyl}-2-(morpholin-4-yl)pyrazolo[1,5-a][1,3,5]triazin-4-amine] | 8350 nM | 84.5 nM | >68
Clc1cccc(-c2cnc(CNc3nc(N4CCOCC4)nc4c(Br)cnn34)[nH]2)c1 [Example 81, 8-bromo-N-{[5-(3-chlorophenyl)-1H-imidazol-2-yl]methyl}-2-(morpholin-4-yl)pyrazolo[1,5-a][1,3,5]triazin-4-amine] | 5390 nM | 5.31 nM | 144
